The values that follow are results of earlier work, collected in paper PMC7765247 (Bioorganic & medicinal chemistry letters, 2020).

SMILES strings stand for the structures.

The data set concerns PC-3 cells. Particulars: anoxia (< 10 ppm oxygen in gas phase); ref Patterson el. al.

As to `CS(=O)(=O)OCCN(CCBr)c1c(C(=O)NCCO)cc([N+](=O)[O-])cc1[N+](=O)[O-]` [Compound 16, PR-104A], the “hypoxia-selectivity ratio in PC-3 cells” value is “approximately 15”.
